{"source": "patent EP0059645A1", "about": "“Method and kit for identification of beta-lactamases” (NATIONAL RESEARCH DEVELOPMENT CORPORATION, priority 1981, dated 1982)", "key": {"[1]": {"target": "T1, Chromosomal, induced beta-lactamase enzyme (Pseudomonas aeruginosa, UniProt P24735)", "T1 construct": "Normally, therefore, the beta-lactamase has to be extracted from the cells for the purpose of the present invention; endogenous in cells; host or cells: Pseudomonas aeruginosa 1937E grown with ampicillin", "experiment": "Competitive assay with nitrocefin (RSAI)", "format": "biochemical, Ps.aerug. 1937E + ampicillin"}, "SHV-1": {"target": "SHV-1 (Escherichia coli, UniProt P0AD63)", "experiment": "Competitive assay with nitrocefin (RSAI)", "format": "biochemical, E. coli 2008E", "set-up": "the beta-lactamase has to be extracted from the cells for the purpose of the present invention; made in house; host or cells: E. coli 2008E (crude cell extract)"}, "PSE-1": {"target": "PSE-1 (Pseudomonas aeruginosa, UniProt Q03170)", "experiment": "Competitive assay with nitrocefin (RSAI)", "format": "biochemical, Ps.aerug. 1937E", "set-up": "Normally, therefore, the beta-lactamase has to be extracted from the cells for the purpose of the present invention; endogenous in cells"}, "PSE-4": {"target": "PSE-4 (Pseudomonas aeruginosa, UniProt P16897)", "experiment": "Competitive assay with nitrocefin (RSAI)", "format": "biochemical, Ps.aerug. 1559E", "set-up": "Normally, therefore, the beta-lactamase has to be extracted from the cells for the purpose of the present invention; endogenous in cells"}, "[2]": {"tested_on": "\"unknown\" (unidentified) beta-lactamase", "experiment": "Competitive assay with nitrocefin (RSAI) on an unidentified beta-lactamase", "conditions": "extract by the method of Example 6, assay as in Example 1; * = showed irreversible inhibition"}, "E. cloacae": {"target": "E. cloacae (Enterobacter cloacae, UniProt P05364)", "experiment": "6-well visual test with nitrocefin", "conditions": "3 minutes, room temperature"}, "OXA-2": {"target": "OXA-2 (Escherichia coli, UniProt P0A1V9)", "experiment": "Competitive assay with nitrocefin (RSAI)", "format": "biochemical, E. coli R46", "set-up": "the beta-lactamase has to be extracted from the cells for the purpose of the present invention; made in house; host or cells: E. coli carrying R46 according to the earlier reading (crude cell extract)"}}, "data": [{"smiles": "CO[C@@]1(NC(=O)Cc2cccs2)C(=O)N2C(C(=O)O)=C(COC(N)=O)CS[C@@H]21", "note": "[Cefoxi-tin, cefoxitin]", "values": [{"measurement": "RSAI", "setting": "[1]", "result": 0.003}, {"measurement": "RSAI", "setting": "SHV-1", "result": 600}, {"measurement": "RSAI", "setting": "PSE-1", "result": 20}, {"measurement": "RSAI", "setting": "PSE-4", "result": 27}, {"measurement": "RSAI", "setting": "[2]", "result": 0.008}, {"measurement": "Score in 6-well visual test", "setting": "E. cloacae; well A: Cefoxitin 20:1 to nitrocefin", "result": "-"}, {"measurement": "Score in 6-well visual test", "setting": "E. cloacae; well E: Cefoxitin 200:1 to nitrocefin", "result": "-"}, {"measurement": "RSAI", "setting": "OXA-2", "result": 0.2}]}]}
